# Data as given in patent US12667605B2, “Pharmaceutical composition for oral administration of a GLP-1 receptor agonist” (priority 2021, dated 2026).
# Assays:
# Assay type in all cases: in vitro ADME
# pepsin [1] = target: T1, pepsin (Sus scrofa, UniProt P00791); test: Protection of semaglutide compared to Rybelsus under gastric conditions reproduced in vitro, with pepsin (Example 4, HPLC); conditions: buffered solution; simulated gastric medium pH 1.2 with pepsin (3.2 mg/mL); 0.05 mg/ml of semaglutide; T = 2 h; 37° C.
# T1 sequence (P00791 60-385): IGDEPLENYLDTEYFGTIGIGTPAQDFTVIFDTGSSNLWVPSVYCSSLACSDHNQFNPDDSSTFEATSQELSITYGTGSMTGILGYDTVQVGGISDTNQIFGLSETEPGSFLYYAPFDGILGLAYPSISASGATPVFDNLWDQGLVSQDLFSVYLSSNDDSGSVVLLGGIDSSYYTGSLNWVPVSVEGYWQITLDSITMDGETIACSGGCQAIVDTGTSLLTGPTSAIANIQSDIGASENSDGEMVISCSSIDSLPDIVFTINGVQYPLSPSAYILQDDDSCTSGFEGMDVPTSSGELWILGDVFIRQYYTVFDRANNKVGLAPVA
# Procedure: (§1) The gastro-resistance tests with semaglutide were carried out at a concentration of 0.05 mg/mL (5 mg of semaglutide in final 100 mL). The simulated gastric medium was prepared following the same protocol as that described in Example 3.
# (§2) The product Rybelsus® comprises Semaglutide, Sodium Salcaprozate (SNAC), Povidone, Microcrystalline Cellulose, and Magnesium Stearate. • Step 1) A 14 mg Rybelsus® tablet was used for the comparative tests and was dissolved in 50 mL of drinking water for thirty minutes with stirring. The final semaglutide concentration was 0.28 mg/mL. • Step 2) An effervescent tablet (according to Example 1A) was added or not to the solution obtained in step 1. After cessation of effervescence, 50 ml of 0.2 N HCL at pH 1.2 were added to obtain a final solution of 100 ml of 0.1 N HCL, which corresponds to the simulated gastric environment. The final concentration of semaglutide is 14 mg per 100 mL. • Step 3) The pepsin was then added or not to the solution obtained in step 2, at the conventional dose of 3.2 mg/ml. The test was carried out for 2 hours at a temperature of 37° C.
# The semaglutide content was specifically assayed by high performance liquid chromatography (HPLC). The residual content was calculated by measuring the semaglutide content at time t relative to the initial semaglutide content. The result is a ratio expressed in percent (%). […]
# pepsin [2] = target: T1, pepsin; test: Protection of semaglutide under gastric conditions reproduced in vitro, with pepsin (Example 2, UHPLC-UV); conditions: for Semaglutide residual content (%): simulated gastric medium at pH 1.2 with pepsin (3.2 mg/ml), 0.05 mg/ml semaglutide, 37° C.
# Procedure: (§3) The purpose of this test is to show the gastric stability of semaglutide in a composition according to the invention. • Step 1) The tablet obtained in Example 1A was dissolved in 50 mL of drinking water in order to obtain a buffered solution. • Step 2) The simulated gastric medium was prepared with hydrochloric acid (0.2 N HCl), adjusting the pH to 1.2. • Step 3) The buffered solution obtained in step 1) was mixed with 50 ml of simulated gastric medium, in order to obtain a final solution of 100 ml with 0.1 N HCL. • Step 4) Semaglutide was added to the solution obtained in step 3), in is order to obtain a final concentration of semaglutide of 0.05 mg/ml. • Step 5) Pepsin was added to the solution obtained in step 4) at a final concentration of 3.2 mg/ml or without addition of pepsin (without pepsin), and the solution obtained was kept under constant stirring at 37° C. for 2 hours.
# (§4) The semaglutide assay was performed by ultra-high performance liquid chromatography (UHPLC) coupled to an ultraviolet (UV) detector using an external standard calibration. The residual semaglutide content was calculated by measuring the semaglutide content at time t relative to the initial semaglutide content. The result is a ratio expressed in percent (%). The residual content of semaglutide corresponds to the protection percentage of semaglutide.
# [3] = Stability of semaglutide in simulated gastric medium at pH 1.2 without pepsin (Example 2, UHPLC-UV); conditions: for Semaglutide residual content (%): simulated gastric medium at pH 1.2 without pepsin, 0.05 mg/ml semaglutide, 37° C.
# Procedure: as §3, §4
# [4] = Stability of semaglutide compared to Rybelsus in simulated gastric medium pH 1.2 without pepsin (Example 4, HPLC); conditions: for Residual semaglutide content in percent (%): buffered solution, simulated gastric medium pH 1.2 without pepsin, 0.05 mg/mL of semaglutide, 37° C.
# Procedure: as §1, §2
# The semaglutide content was specifically assayed by high performance liquid chromatography (HPLC). The residual content was calculated by measuring the semaglutide content at time t relative to the initial semaglutide content. The result is a ratio expressed in percent (%). The residual content of semaglutide corresponds to the percentage of protection of the semaglutide.
smiles,measurement,setting,value
CC[C@H](C)[C@H](NC(=O)[C@H](Cc1ccccc1)NC(=O)[C@H](CCC(=O)O)NC(=O)[C@H](CCCCNC(=O)COCCOCCNC(=O)COCCOCCNC(=O)CC[C@H](NC(=O)CCCCCCCCCCCCCCCCC(=O)O)C(=O)O)NC(=O)[C@H](C)NC(=O)[C@H](C)NC(=O)[C@H](CCC(N)=O)NC(=O)CNC(=O)[C@H](CCC(=O)O)NC(=O)[C@H](CC(C)C)NC(=O)[C@H](Cc1ccc(O)cc1)NC(=O)[C@H](CO)NC(=O)[C@H](CO)NC(=O)[C@@H](NC(=O)[C@H](CC(=O)O)NC(=O)[C@H](CO)NC(=O)[C@@H](NC(=O)[C@H](Cc1ccccc1)NC(=O)[C@@H](NC(=O)CNC(=O)[C@H](CCC(=O)O)NC(=O)C(C)(C)NC(=O)[C@@H](N)Cc1cnc[nH]1)[C@@H](C)O)[C@@H](C)O)C(C)C)C(=O)N[C@@H](C)C(=O)N[C@@H](Cc1c[nH]c2ccccc12)C(=O)N[C@@H](CC(C)C)C(=O)N[C@H](C(=O)N[C@@H](CCCNC(=N)N)C(=O)NCC(=O)N[C@@H](CCCNC(=N)N)C(=O)NCC(=O)O)C(C)C [semaglutide],Residual semaglutide content in percent (%),pepsin [1],105.2%
same,residual content,"pepsin [2]; acid medium with pepsin and without a buffer system, time not given",0%
same,Semaglutide residual content (%),pepsin [2]; with the buffered solution (Example 1A tablet),104.6%
same,Semaglutide residual content (%),pepsin [2]; without buffer system,0%
same,degradation of semaglutide (in words),"[3]; formulated with a buffer system, after 2 hours, without pepsin",not degraded
same,Semaglutide residual content (%),"[3]; with the buffered solution (Example 1A tablet), T 0 h",103.5%
same,Semaglutide residual content (%),"[3]; with the buffered solution (Example 1A tablet), T 2 h",104.1%
same,Semaglutide residual content (%),"[3]; without buffer system, T 0 h",100%
same,Residual semaglutide content in percent (%),[4]; T = 1 h,103.5%
same,Residual semaglutide content in percent (%),[4]; T = 2 h,104.1%
same,stability of semaglutide (in words),"[4]; in the absence of pepsin, in the presence of the buffer system",stable
